Source: patent US12258338B2, “Modulators of the integrated stress response pathway” (EVOTEC INTERNATIONAL GMBH, priority 2019, dated 2025)
pIC50: −log10 of the molar value. In brackets after ≈: the same amount, converted by molar mass. Like-named read-outs stand apart in the source and are kept apart here.

Columns and labels:
[1] = Thermodynamic (Equilibrium) solubility in selected buffer; format: physicochemical; details: for solubility: aqueous buffer, thermodynamic from solid
In short: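 Powdered compound at 1 mg/mL target in 50 mM phosphate pH 2.0, 50 mM acetate pH 5.5 or 50 mM phosphate pH 7.4, stirred overnight at r.t. in the dark, then 0.45 μm filtered. Filtrate quantified by UPLC-UV peak area against a 0.8 mg/mL DMSO reference.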

[2] = Log D 7.4 assay (1-octanol / phosphate buffer pH 7.4); format: physicochemical
Method: Phosphate buffer (1 M) was diluted to 20 mM with deionised water and adjusted to pH 7.4 (±0.05) with phosphoric acid or sodium hydroxide. A 1:1 mixture of phosphate buffer (20 mM) and 1-octanol were saturated by tumbling overnight after which time the two phases were separated. Using an automated liquid handler the following procedure was carried out: 20 mM DMSO stocks of assay and control compounds were reformatted to provide cassettes of 4 compounds per well giving a final concentration of 5 mM per compound. In duplicate 5 μL of the cassetted compounds were added to 495 μL 1-octanol (saturated with buffer) followed by 495 μL of buffer (saturated with 1-octanol) in a 96-well plate giving final incubation concentrations of 25 μM (50 μM max concentration in either layer if all compound partitioned into a single matrix). The layers were mixed by aspirating and dispensing the buffer and octanol layers into one another three times. The plate was sealed, shaken for 120 minutes and then centrifuged at 25° C. for 15 min at 4600 rpm. The 1-octanol and buffer layer were sampled separately (ensuring no cross contamination) and the respective samples diluted with 60:40 ACN:0.1 M ammonium acetate pH 7.4 (containing external standard; Sulfisoxazole, assay concentration 120 nM) to obtain final theoretical maximum concentrations of the 1-octanol layer of 0.025 μM, 0.5 μM and a buffer layer concentration of 0.5 μM. The second buffer sample was prepared by diluting the assay buffer layer with acetonitrile (containing external standard; Sulfisoxazole, assay concentration 120 nM) to give a theoretical maximum concentration of 20 μM. The analytical samples were analysed by LC-MS/MS and the Log D calculated as shown:
[formula] Where PA=Peak area and ES=External standard

[3] = biological target: T1, human ERG potassium channel (hERG) (Homo sapiens, UniProt Q12809); assay: hERG channel tail current recording using in vitro Rapid ICE (automated patch-clamp, QPatch HTX); format: cell-based
T1 construct: expressed in transfected cells; host or cells: HEK293, stably transfected, tetracycline-inducible promoter
In short: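 Automated patch clamp on tetracycline-induced HEK293 hERG cells; pulse −80 to −50 mV 200 ms, +20 mV 4.8 s, −50 mV 5 s tail, extracellular pH 7.4. Compound at 0.3, 3, 30 μM (0.3% DMSO), 5 min exposure; tail current versus vehicle gives % inhibition and estimated IC50.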

[4] = acetate buffer 50 mM, pH 5, Table 24, read-out: Solubility (μg/mL) pH 5
[5] = acetate buffer 50 mM, pH 5.5, Table 25, read-out: Solubility (μg/mL) pH 5.5
[6] = phosphate buffer 50 mM, pH 7.4, Table 24, read-out: Solubility (μg/mL) pH 7.4

T1 sequence (Q12809 whole entry): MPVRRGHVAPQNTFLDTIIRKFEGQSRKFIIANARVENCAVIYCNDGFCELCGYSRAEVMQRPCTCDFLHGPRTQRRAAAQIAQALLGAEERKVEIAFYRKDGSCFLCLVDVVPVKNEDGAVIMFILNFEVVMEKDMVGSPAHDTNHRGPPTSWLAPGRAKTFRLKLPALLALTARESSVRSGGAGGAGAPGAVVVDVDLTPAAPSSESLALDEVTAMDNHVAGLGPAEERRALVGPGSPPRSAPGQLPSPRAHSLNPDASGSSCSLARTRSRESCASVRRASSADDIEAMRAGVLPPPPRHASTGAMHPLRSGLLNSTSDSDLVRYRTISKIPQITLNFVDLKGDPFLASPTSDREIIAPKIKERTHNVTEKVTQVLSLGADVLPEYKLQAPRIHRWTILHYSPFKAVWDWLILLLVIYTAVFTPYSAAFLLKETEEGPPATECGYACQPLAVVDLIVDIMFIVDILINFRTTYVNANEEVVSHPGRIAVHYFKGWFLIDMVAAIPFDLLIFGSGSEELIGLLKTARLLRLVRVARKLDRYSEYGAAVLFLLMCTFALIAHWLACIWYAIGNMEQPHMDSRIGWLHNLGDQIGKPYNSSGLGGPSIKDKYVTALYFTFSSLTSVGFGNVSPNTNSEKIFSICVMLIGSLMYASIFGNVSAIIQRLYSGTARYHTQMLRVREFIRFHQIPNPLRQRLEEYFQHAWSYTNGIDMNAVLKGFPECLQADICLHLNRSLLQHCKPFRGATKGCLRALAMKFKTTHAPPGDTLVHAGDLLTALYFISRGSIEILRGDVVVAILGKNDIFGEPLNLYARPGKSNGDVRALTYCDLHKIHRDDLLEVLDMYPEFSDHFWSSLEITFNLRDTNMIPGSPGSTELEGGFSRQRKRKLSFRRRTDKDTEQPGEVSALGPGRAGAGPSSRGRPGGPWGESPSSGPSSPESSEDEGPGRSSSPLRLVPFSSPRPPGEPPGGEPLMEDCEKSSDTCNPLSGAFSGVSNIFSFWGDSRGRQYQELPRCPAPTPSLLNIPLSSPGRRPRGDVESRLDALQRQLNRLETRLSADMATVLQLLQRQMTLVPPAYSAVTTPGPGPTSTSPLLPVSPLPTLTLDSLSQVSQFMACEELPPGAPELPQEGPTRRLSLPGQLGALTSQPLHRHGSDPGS

Row | solubility [1, 4] | solubility [1, 5] | Solubility (μg/mL) pH 2 ([1]; pH 2, Table 24) | Solubility (μg/mL) pH 2.0 ([1]; pH 2.0, Table 25) | solubility [1, 6] | logD at 120 min [2] | solubility ([1]; phosphate buffer 50 mM, pH 2, Table 24, read-out: Solubility (μg/mL) pH 2) | SMILES | pIC50 ([3]; Table 24) | pIC50 ([3]; Table 26)
1 | 78 µg/mL (≈ 158 µM) | 78 µg/mL (≈ 158 µM) | quant.^# | quant.^# | 63 µg/mL (≈ 128 µM) | 2.7 |  | O=C(COc1ccc(Cl)c(F)c1)N[C@H]1CC[C@H](c2nnc([C@H]3C[C@@H](OC(F)(F)F)C3)o2)NC1 [Example 50, 2-(4-chloro-3-fluorophenoxy)-N-[(3S,6R)-6-{5-[(1s,3s)-3-(trifluoromethoxy)cyclobutyl]-1,3,4-oxadiazol-2-yl}piperidin-3-yl]acetamide] | 5.30 to 6.00 | < 5.30
2 | 156 µg/mL (≈ 345 µM) | 156 µg/mL (≈ 345 µM) |  |  | 90 µg/mL (≈ 199 µM) | 2.3 | 907 µg/mL (≈ 2000 µM) | O=C(COc1ccc(Cl)c(F)c1)N[C@H]1CC[C@H](c2nnc(COC(F)(F)F)o2)NC1 [Example 61, 2-(4-chloro-3-fluorophenoxy)-N-[(3S,6R)-6-(5-[(trifluoromethoxy)methyl]-1,3,4-oxadiazol-2-yl}piperidin-3-yl]acetamide] | 5.30 to 6.00 | 5.30 to 6.00
